These results are taken from PubChem BioAssay AID1745844 (Carcinogenic Potency Database (CPDB), 2022).

Several values for one entry are separate records, joined by “and”; a condition that tells them apart may be missing. Identical values can stand only once. Activity calls are given as the source filed them. No rule for the calls is given here.

This data set deals with rodent lifetime carcinogenesis bioassay, tumor incidence TD50. In words: chronic cancer bioassays in animals – CPDB, compiled studies (AID 1745844).

In general, TD50 refers to the 50% point of the dose-response relation for the toxic effect studied. As for `COc1cc(S(C)=O)ccc1-c1nc2ccncc2[nH]1` (centres undefined), the TD50 by setting is: (rat, strain Fischer 344, females, in feed, site: adrenal medulla, lesion: pheochromocytoma, benign, dosed 104 weeks, study length 104 weeks) 450 mg/kg/day; (rat, strain Fischer 344, females, in feed, site: adrenal medulla, lesion: several types, types named in the paper, dosed 104 weeks, study length 104 weeks) 385 mg/kg/day; (rat, strain Fischer 344, males, in feed, site: adrenal medulla, lesion: pheochromocytoma, benign, dosed 104 weeks, study length 104 weeks) 45.4 mg/kg/day; (rat, strain Fischer 344, males, in feed, site: adrenal medulla, lesion: pheochromocytoma, malignant, dosed 104 weeks, study length 104 weeks) 481 mg/kg/day; (rat, strain Fischer 344, males, in feed, site: adrenal medulla, lesion: several types, types named in the paper, dosed 104 weeks, study length 104 weeks) 38.8 mg/kg/day.

Take `CCCCCCCCCCCCCCN(C)N=O`: the carcinogen call is “positive” (rat, strain Fischer 344, males, by gavage, site: any site (literature study), lesion: several types, types named in the paper, dosed 30 weeks, study length 102 weeks) and “positive” (rat, strain Fischer 344, males, by gavage, site: urinary bladder, lesion: transitional-cell carcinoma, dosed 30 weeks, study length 102 weeks). Also, the TD50 is, setting by setting: (rat, strain Fischer 344, males, by gavage, site: lung, lesion: adenocarcinoma, dosed 30 weeks, study length 102 weeks) 60.5 mg/kg/day; (rat, strain Fischer 344, males, by gavage, site: lung, lesion: adenoma, dosed 30 weeks, study length 102 weeks) 29.4 mg/kg/day.

As to `O=S(=O)(O)NC1CCCCC1`, the TD50 by setting is: (monkey, strain Cynomolgus [Macaca fascicularis], both sexes, in feed, site: liver, lesion: hepatocellular carcinoma, dosed 1238 weeks, study length 1238 weeks) 1250 mg/kg/day; (monkey, strain Cynomolgus [Macaca fascicularis], both sexes, in feed, site: prostate, lesion: adenocarcinoma, dosed 1238 weeks, study length 1238 weeks) 35.6 mg/kg/day; (monkey, strain Rhesus [Macaca mulatta], both sexes, in feed, site: any site (literature study), lesion: malignant tumor, dosed 1251 weeks, study length 1251 weeks) 3160 mg/kg/day; (monkey, strain Rhesus [Macaca mulatta], both sexes, in feed, site: colon, lesion: adenocarcinoma, dosed 1251 weeks, study length 1251 weeks) 764 mg/kg/day; (monkey, strain Rhesus [Macaca mulatta], both sexes, in feed, site: thyroid gland, lesion: papillary adenoma, dosed 1251 weeks, study length 1251 weeks) 182 mg/kg/day; (mouse, strain (C3H x RIII)F1 (MTV+), males, in drinking water, site: any site (literature study), lesion: several types, types named in the paper, dosed 104 weeks, study length 104 weeks) 772 mg/kg/day. Further, the TD50 (mouse, strain (C3H x RIII)F1 (MTV+), males, in drinking water, site: liver, lesion: several types, types named in the paper, dosed 104 weeks, study length 104 weeks) was 1420 mg/kg/day; the TD50 (mouse, strain (C3H x RIII)F1 (MTV+), males, in drinking water, site: lung, lesion: several types, types named in the paper, dosed 104 weeks, study length 104 weeks) came to 4380 mg/kg/day; the TD50 (mouse, strain ASH-CS1, females, in feed, site: lung, lesion: adenoma, dosed 80 weeks, study length 82 weeks) was 228000 mg/kg/day (inactive); the TD50 (mouse, strain ASH-CS1, females, in feed, site: reticuloendothelium, lesion: lymphosarcoma, dosed 80 weeks, study length 82 weeks) is 16700 mg/kg/day (inactive); the TD50 (mouse, strain RIII (MTV+), males, in drinking water, site: any site (literature study), lesion: several types, types named in the paper, dosed 104 weeks, study length 104 weeks) turned out to be 4670 mg/kg/day; the TD50 (mouse, strain RIII (MTV+), males, in drinking water, site: lung, lesion: several types, types named in the paper, dosed 104 weeks, study length 104 weeks) was found to be 4670 mg/kg/day. For the same molecule, the TD50 by setting is: (mouse, strain XVII/G, females, in drinking water, site: any site (literature study), lesion: several types, types named in the paper, dosed 104 weeks, study length 104 weeks) 587 mg/kg/day; (mouse, strain XVII/G, females, in drinking water, site: liver, lesion: several types, types named in the paper, dosed 104 weeks, study length 104 weeks) 16000 mg/kg/day; (mouse, strain XVII/G, females, in drinking water, site: lung, lesion: several types, types named in the paper, dosed 104 weeks, study length 104 weeks) 587 mg/kg/day; (rat, strain Sprague-Dawley, both sexes, in feed, site: any site (literature study), lesion: malignant tumor, dosed 130 weeks, study length 130 weeks) 30700 mg/kg/day (inactive); (rat, strain Wistar, both sexes, in feed, site: urinary bladder, lesion: one or several types, types not named, dosed 104 weeks, study length 104 weeks) 83900 mg/kg/day. The carcinogen call reads like this: (mouse, strain ASH-CS1, females, in feed, site: liver, lesion: one or several types, types not named, dosed 80 weeks, study length 82 weeks) “negative (inactive)”; (mouse, strain ASH-CS1, males, in feed, site: liver, lesion: one or several types, types not named, dosed 80 weeks, study length 82 weeks) “negative (inactive)”; (mouse, strain ASH-CS1, males, in feed, site: lung, lesion: adenoma, dosed 80 weeks, study length 82 weeks) “negative (inactive)”; (mouse, strain Swiss albino, females, in feed, site: liver, lesion: hepatoma, dosed 76 weeks, study length 76 weeks) “negative (inactive)”; (mouse, strain Swiss, females, in feed, site: urinary bladder, lesion: anaplastic carcinoma, dosed 91 weeks, study length 91 weeks) “negative (inactive)”; (mouse, strain Swiss, males, in feed, site: urinary bladder, lesion: one or several types, types not named, dosed 91 weeks, study length 91 weeks) “negative (inactive)”. Further, the carcinogen call was “negative (inactive)” (rat, strain Sprague-Dawley, both sexes, in feed, site: urinary bladder, lesion: papilloma, dosed 130 weeks, study length 130 weeks) and “negative (inactive)” (rat, strain Sprague-Dawley, both sexes, in feed, site: urinary bladder, lesion: transitional-cell carcinoma, dosed 130 weeks, study length 130 weeks).

Regarding `C#C[C@]1(O)CC[C@H]2[C@@H]3CCc4cc(O)ccc4[C@H]3CC[C@@]21C`, for the setting “rat, strain Slc-Wistar, females, by gavage, site: liver, lesion: hepatocellular carcinoma, dosed 52 weeks, study length 52 weeks”, the TD50 was 0.2 mg/kg/day.

For the molecule `S=P(N1CC1)(N1CC1)N1CC1`, the TD50 by setting is: (mouse, strain B6C3F1, females, i.p., site: all sites, lesion: lymphocytic leukemia + lymphoma, dosed 47 weeks, study length 86 weeks) 0.216 mg/kg/day and 0.21 mg/kg/day; (mouse, strain B6C3F1, females, i.p., site: any site (literature study), lesion: several types, types named in the paper, dosed 47 weeks, study length 86 weeks) 0.0855 mg/kg/day; (mouse, strain B6C3F1, females, i.p., site: liver, lesion: hepatocellular adenoma + hepatocellular carcinoma + neoplastic nodule, dosed 47 weeks, study length 86 weeks) 1.12 mg/kg/day; (mouse, strain B6C3F1, females, i.p., site: lung, lesion: alveolar/bronchiolar adenoma + alveolar/bronchiolar carcinoma, dosed 47 weeks, study length 86 weeks) 0.408 mg/kg/day; (mouse, strain B6C3F1, females, i.p., site: lung, lesion: alveolar/bronchiolar adenoma, dosed 47 weeks, study length 86 weeks) 0.408 mg/kg/day; (mouse, strain B6C3F1, males, i.p., site: all sites, lesion: leukemia + lymphocytic leukemia + lymphoma, dosed 52 weeks, study length 83 weeks) 0.241 mg/kg/day. Further, the TD50 (mouse, strain B6C3F1, males, i.p., site: all sites, lesion: leukemia + lymphoma, dosed 52 weeks, study length 83 weeks) is 0.241 mg/kg/day and 0.238 mg/kg/day; the TD50 (mouse, strain B6C3F1, males, i.p., site: all sites, lesion: lymphocytic leukemia + lymphoma, dosed 52 weeks, study length 83 weeks) is 0.265 mg/kg/day and 0.262 mg/kg/day; the TD50 (mouse, strain B6C3F1, males, i.p., site: all sites, lesion: squamous-cell carcinoma, dosed 52 weeks, study length 83 weeks) was determined as 0.102 mg/kg/day; the TD50 (mouse, strain B6C3F1, males, i.p., site: any site (literature study), lesion: several types, types named in the paper, dosed 52 weeks, study length 83 weeks) is 0.069 mg/kg/day; the TD50 (mouse, strain B6C3F1, males, i.p., site: liver, lesion: hepatocellular adenoma + hepatocellular carcinoma + neoplastic nodule, dosed 52 weeks, study length 83 weeks) came to 1.12 mg/kg/day; the TD50 (mouse, strain B6C3F1, males, i.p., site: lung, lesion: alveolar/bronchiolar adenoma + alveolar/bronchiolar carcinoma, dosed 52 weeks, study length 83 weeks) worked out at 0.584 mg/kg/day. In addition, the TD50 was 0.3 mg/kg/day (mouse, strain B6C3F1, males, i.p., site: preputial gland, lesion: squamous-cell carcinoma, dosed 52 weeks, study length 83 weeks); 0.28 mg/kg/day (mouse, strain B6C3F1, males, i.p., site: skin, lesion: squamous-cell carcinoma, dosed 52 weeks, study length 83 weeks); 0.646 mg/kg/day (rat, strain BR 46, males, i.v., site: any site (literature study), lesion: benign tumor, dosed 52 weeks, study length 104 weeks); 0.303 mg/kg/day (rat, strain BR 46, males, i.v., site: any site (literature study), lesion: malignant tumor, dosed 52 weeks, study length 104 weeks); 0.186 mg/kg/day (rat, strain BR 46, males, i.v., site: any site (literature study), lesion: several types, types named in the paper, dosed 52 weeks, study length 104 weeks); 0.0404 mg/kg/day (rat, strain Sprague-Dawley, females, i.p., site: any site (literature study), lesion: several types, types named in the paper, dosed 36 weeks, study length 81 weeks). Moreover, the TD50 reads like this: (rat, strain Sprague-Dawley, females, i.p., site: brain + nasal cavity, lesion: olfactory neuroblastoma + carcinoma, NOS, dosed 36 weeks, study length 81 weeks) 0.819 mg/kg/day; (rat, strain Sprague-Dawley, females, i.p., site: ear canal + skin, lesion: squamous-cell carcinoma, dosed 36 weeks, study length 79 weeks) 0.214 mg/kg/day; (rat, strain Sprague-Dawley, females, i.p., site: ear canal + skin, lesion: squamous-cell carcinoma, dosed 36 weeks, study length 81 weeks) 0.217 mg/kg/day; (rat, strain Sprague-Dawley, females, i.p., site: ear canal, lesion: squamous-cell carcinoma, dosed 36 weeks, study length 79 weeks) 0.327 mg/kg/day; (rat, strain Sprague-Dawley, females, i.p., site: mammary gland, lesion: adenocarcinoma, NOS, dosed 36 weeks, study length 79 weeks) 0.182 mg/kg/day; (rat, strain Sprague-Dawley, females, i.p., site: uterus, lesion: adenocarcinoma, NOS, dosed 36 weeks, study length 79 weeks) 0.236 mg/kg/day. The TD50 is 0.243 mg/kg/day (rat, strain Sprague-Dawley, females, i.p., site: uterus, lesion: adenocarcinoma, NOS, dosed 36 weeks, study length 81 weeks); 0.224 mg/kg/day (rat, strain Sprague-Dawley, males, i.p., site: all sites, lesion: leukemia + lymphoma, dosed 32 weeks, study length 79 weeks); 0.29 mg/kg/day (rat, strain Sprague-Dawley, males, i.p., site: all sites, lesion: leukemia, dosed 32 weeks, study length 79 weeks); 0.312 mg/kg/day (rat, strain Sprague-Dawley, males, i.p., site: all sites, lesion: leukemia, dosed 32 weeks, study length 82 weeks); 0.374 mg/kg/day (rat, strain Sprague-Dawley, males, i.p., site: all sites, lesion: lymphocytic leukemia, dosed 32 weeks, study length 79 weeks); 0.0332 mg/kg/day (rat, strain Sprague-Dawley, males, i.p., site: any site (literature study), lesion: several types, types named in the paper, dosed 32 weeks, study length 82 weeks). In addition, the TD50 is 0.285 mg/kg/day (rat, strain Sprague-Dawley, males, i.p., site: brain + nasal cavity, lesion: neuroblastoma + olfactory neuroblastoma + carcinoma, NOS, dosed 32 weeks, study length 82 weeks); 0.122 mg/kg/day (rat, strain Sprague-Dawley, males, i.p., site: ear canal + skin, lesion: squamous-cell carcinoma, dosed 32 weeks, study length 79 weeks); 0.155 mg/kg/day (rat, strain Sprague-Dawley, males, i.p., site: skin, lesion: squamous-cell carcinoma, dosed 32 weeks, study length 79 weeks); 0.22 mg/kg/day (rat, strain Sprague-Dawley, males, i.p., site: subcutaneous tissue, lesion: sarcoma, NOS, dosed 32 weeks, study length 79 weeks).
